Results from ChEMBL document CHEMBL4699502, “Discovery of 1-(1H-indazol-4-yl)-3-((1-phenyl-1H-pyrazol-5-yl)methyl) ureas as potent and thermoneutral TRPV1 antagonists” (Bioorg Med Chem Lett, 2020).
The source made the active and inactive calls. The calls are words filed in the database; no cut-off is given here.

molecular target: T1, Transient receptor potential cation channel subfamily V member 1 (Homo sapiens, UniProt Q8NER1); experiment: Agonist activity at human TRPV1 expressed in CHO-K1 cells assessed as induction of Ca2+ response treated with compound 6 mins prior to capsaicin addition and measured after overnight incubation by FLIPR assay; assay type: cell-based; details: filed as agonist
T1 sequence (Q8NER1 whole entry): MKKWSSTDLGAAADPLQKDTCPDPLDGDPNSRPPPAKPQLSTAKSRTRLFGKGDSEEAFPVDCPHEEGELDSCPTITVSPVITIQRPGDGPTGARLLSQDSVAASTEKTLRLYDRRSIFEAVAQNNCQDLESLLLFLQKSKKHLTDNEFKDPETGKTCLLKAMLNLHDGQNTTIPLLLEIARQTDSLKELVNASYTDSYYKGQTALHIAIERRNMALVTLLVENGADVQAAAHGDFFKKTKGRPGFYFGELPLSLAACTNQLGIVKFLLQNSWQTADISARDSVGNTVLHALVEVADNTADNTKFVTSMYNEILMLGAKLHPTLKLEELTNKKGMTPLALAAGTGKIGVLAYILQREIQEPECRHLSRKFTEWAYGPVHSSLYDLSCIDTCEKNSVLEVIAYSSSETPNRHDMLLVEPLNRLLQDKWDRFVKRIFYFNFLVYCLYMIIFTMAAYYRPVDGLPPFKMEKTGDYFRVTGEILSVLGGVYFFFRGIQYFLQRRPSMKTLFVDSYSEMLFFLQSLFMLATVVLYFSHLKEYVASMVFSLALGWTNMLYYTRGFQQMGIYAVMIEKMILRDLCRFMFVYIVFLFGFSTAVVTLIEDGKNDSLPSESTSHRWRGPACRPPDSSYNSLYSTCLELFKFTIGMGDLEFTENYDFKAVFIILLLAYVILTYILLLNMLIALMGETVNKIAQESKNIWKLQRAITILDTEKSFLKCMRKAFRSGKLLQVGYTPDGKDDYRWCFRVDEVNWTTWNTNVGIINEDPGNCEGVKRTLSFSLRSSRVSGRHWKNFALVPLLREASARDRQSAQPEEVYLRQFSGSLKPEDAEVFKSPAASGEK

Activity	SMILES
Active	Cn1cc2c(NC(=O)NCc3cc(C(C)(C)C)nn3-c3cccc(Cl)c3)cccc2n1
Active	CC(C)(C)c1cc(CNC(=O)Nc2ccc3[nH]ncc3c2)n(-c2cccc(Cl)c2)n1
Active	Cn1ncc2ccc(NC(=O)NCc3cc(C(C)(C)C)nn3-c3cccc(Cl)c3)cc21
Active	Cn1cc2c(NC(=O)NCc3cc(C(F)(F)F)nn3-c3cccc(Cl)c3)cccc2n1
Active	Cn1ncc2cc(NC(=O)NCc3cc(C(C)(C)C)nn3-c3cccc(Cl)c3)ccc21

test system: not listed separately; experiment: In vivo antagonist activity at TRPV1 in mouse assessed as inhibition of capsaicin-induced hypothermia at 10 mg/kg, po; assay type: functional; details: not given

SMILES	inhibition in vivo at 10 mg/kg [%]
Cn1ncc2c(NC(=O)NCc3cc(C(C)(C)C)nn3-c3cccc(Cl)c3)cccc21	14

test system: not listed separately; experiment: Induction of hyperthermia in mouse assessed as effect on body temperature by measuring thermo-neutral activity at 10 mg/kg, po; assay type: organism-based; details: in vivo

SMILES	Activity
Cn1ncc2c(NC(=O)NCc3cc(C(C)(C)C)nn3-c3cccc(Cl)c3)cccc21	Non-Toxic

molecular target: T1, Transient receptor potential cation channel subfamily V member 1; experiment: Antagonist activity at human TRPV1 expressed in CHO-K1 cells assessed as inhibition of capsaicin-induced Ca2+ response treated with compound 6 mins prior to capsaicin addition and measured after overnight incubation by FLIPR assay; assay type: cell-based; details: not given

Ki [nM]	SMILES
62.9	COc1ccc(-n2nc(C(C)(C)C)cc2CNC(=O)Nc2cccc3[nH]ncc23)cc1
3.9	Cn1ncc2c(NC(=O)NCc3cc(C(F)(F)F)nn3-c3ccc(C(F)(F)F)cc3)cccc21
61	Cn1ncc2cc(NC(=O)NCc3cc(C(F)(F)F)nn3-c3cccc(Cl)c3)ccc21
29.5	CC(=O)n1ncc2c(NC(=O)NCc3cc(C(C)(C)C)nn3-c3cccc(Cl)c3)cccc21
7	Cn1ncc2c(NC(=O)NCc3cc(C(F)(F)F)nn3-c3cccc(F)c3)cccc21
1.9	Cn1ncc2c(NC(=O)NCc3cc(C(F)(F)F)nn3-c3ccc(F)c(Cl)c3)cccc21
0.4	Cn1ncc2c(NC(=O)NCc3cc(C(C)(C)C)nn3-c3cccc(Cl)c3)cccc21
9.5	Cn1ncc2c(NC(=O)NCc3cc(C(C)(C)C)nn3-c3ccc(Cl)cc3)cccc21
2.2	CC(C)(C)c1cc(CNC(=O)Nc2cccc3[nH]ncc23)n(-c2ccc(F)cc2)n1
2.5	O=C(NCc1cc(C(F)(F)F)nn1-c1ccc(Cl)cc1)Nc1cccc2[nH]ncc12
0.6	O=C(NCc1cc(C(F)(F)F)nn1-c1ccc(F)c(Cl)c1)Nc1cccc2[nH]ncc12
12.4	Cn1ncc2c(NC(=O)NCc3cc(C(C)(C)C)nn3-c3ccc(C(F)(F)F)cc3)cccc21
2.7	Cn1ncc2c(NC(=O)NCc3cc(C(F)(F)F)nn3-c3ccc(Cl)cc3)cccc21

same assay, conditions: filed as antagonist

inhibition	SMILES
Active	O=C(NCc1cc(C(F)(F)F)nn1-c1cccc(Cl)c1)Nc1ccc2cn[nH]c2c1

molecular target: T1, Transient receptor potential cation channel subfamily V member 1; experiment: Partial agonist activity at human TRPV1 expressed in CHO-K1 cells assessed as induction of Ca2+ response treated with compound 6 mins prior to capsaicin addition and measured after overnight incubation by FLIPR assay; assay type: cell-based; details: filed as partial agonist

Activity	SMILES
Active	CC(C)(C)c1cc(CNC(=O)Nc2ccc3cn[nH]c3c2)n(-c2cccc(Cl)c2)n1
Active	Cc1ccc(-n2nc(C(C)(C)C)cc2CNC(=O)Nc2cccc3[nH]ncc23)cc1C
Active	Cn1ncc2ccc(NC(=O)NCc3cc(C(F)(F)F)nn3-c3cccc(Cl)c3)cc21
